Test results: US20130101615A1, “METHODS FOR PREVENTING OR TREATING A DISEASE OR CONDITION ASSOCIATED WITH MYCOBACTERIUM AVIUM SUBSPECIES PARATUBERCULOSIS” (priority 2005, published 2013)
“Also recorded” adds a separate entry of the source. Where two headings read alike, the source gives them in different places.

B1: AhpD: Alkyl hydroperoxide reductase D, immunogenic MAP protein, recombinant antigen (protein, UniProt A0QGI9 1-178, looked up)
Alkyl hydroperoxide reductase …: MSVENLKEALPEYAKDLKLNLGSITRTTELNEEQLWGTLLASAAATRNTQVLTEIGAEAADTLSAEAYHAALGAASVMAMNNVFYRGRGFLDGKYDDLRAGLRMNIIGNPGVEKANFELWCFAVSAINGCPDCVASHEHTLREAGVSRETIQEALKAAAIISGVAQAIVTSQTLATAG

Assays:
[1] = test system: M. avium 101; assay type: cell-based, M. avium subspecies avium; conditions: for % ΔcGI: vs 3.2% DMSO control
[2] = test system: MAP ATCC 19698 (bovine); assay type: cell-based, Mycobacterium avium subspecies paratuberculosis; conditions: for % ΔcGI: Bovine MAP 19698, vs 3.2% DMSO control
[3] = test system: MAP 303 (ruminant with Johne's disease); assay: Radiometric BACTEC growth inhibition, MAP 303; assay type: cell-based, Mycobacterium avium subspecies paratuberculosis; conditions: Bovine MAP 303, vs 3.2% DMSO control
[4] = test system: MAP; assay: Growth inhibition of MAP (strain not stated or MAP strains in general); conditions: MAP strains in general
[5] = test system: MAP UCF 4, isolated from human with Crohn's disease; assay: Radiometric BACTEC growth inhibition, MAP UCF4; assay type: cell-based, Mycobacterium avium subspecies paratuberculosis; conditions: for % ΔcGI: Human MAP UCF4, vs 3.2% DMSO control
[6] = test system: M. avium ATCC 25291; assay type: cell-based, M. avium subspecies avium; conditions: for % ΔcGI: M. avium 25291, vs 3.2% DMSO control
[7] = test system: MAP Dominic (ATCC 43545), isolated from human with Crohn's disease; assay type: cell-based, Mycobacterium avium subspecies paratuberculosis; conditions: vs 3.2% DMSO control
[8] = test system: MAP and M. avium strains; assay: Radiometric BACTEC growth inhibition, all strains tested; assay type: cell-based, Mycobacterium avium; conditions: any strain tested (MAP and M. avium)
[9] = test system: MAP and M. tuberculosis; assay type: in vivo, Mice; conditions: 15 μg i.p. in combination with Ag85B-ESAT-6 fusion protein, CFA then IFA; challenge at week 8
[10] = 1 μg/ml, Human MAP Dominic Expt. 1
[11] = 1 μg/ml, Human MAP Dominic Expt. 2
[12] = 4 μg/ml, Human MAP Dominic Expt. 1
[13] = 4 μg/ml, Human MAP Dominic Expt. 2
[14] = 16 μg/ml, Human MAP Dominic Expt. 1
[15] = 16 μg/ml, Human MAP Dominic Expt. 2
[16] = 64 μg/ml, Human MAP Dominic Expt. 1
[17] = 64 μg/ml, Human MAP Dominic Expt. 2

Molecule	effect on growth, in words [1]	% ΔcGI ([1]; 1 μg/ml) [%]	% ΔcGI ([1]; 4 μg/ml) [%]	% ΔcGI ([1]; 16 μg/ml) [%]	% ΔcGI ([1]; 64 μg/ml) [%]	% ΔcGI ([2]; 1 μg/ml) [%]	% ΔcGI ([2]; 4 μg/ml) [%]	% ΔcGI ([2]; 16 μg/ml) [%]	% ΔcGI ([2]; 64 μg/ml) [%]	% ΔcGI ([3]; 1 μg/ml) [%]	% ΔcGI ([3]; 4 μg/ml) [%]	% ΔcGI ([3]; 16 μg/ml) [%]	% ΔcGI ([3]; 64 μg/ml) [%]	% ΔcGI ([5]; 1 μg/ml) [%]	% ΔcGI ([5]; 4 μg/ml) [%]	% ΔcGI ([5]; 16 μg/ml) [%]	% ΔcGI ([5]; 64 μg/ml) [%]	% ΔcGI ([6]; 1 μg/ml) [%]	% ΔcGI ([6]; 4 μg/ml) [%]	% ΔcGI ([6]; 16 μg/ml) [%]	other results
C[C@@H]1C[C@@H]([C@H](O)CC2CC(=O)NC(=O)C2)C(=O)[C@@H](C)C1 [Cycloheximide, cycloheximide]	no affect	6	7	1	5	−2	−7	−12	−9	3	4	−5	−4	1	−7	−4	−12	0	−8	−7	effect on growth of MAP, in words [4]: no dose-dependent inhibition on any MAP strain; % ΔcGI ([6]; 64 μg/ml): −57%; %−ΔcGI (percent decrease in cumulative GI) ([6]; 64 μg/ml, M. avium ATCC 25291): 57%; % ΔcGI [7, 10]: 15%; % ΔcGI [7, 11]: 9%; % ΔcGI [7, 12]: −4%; % ΔcGI [7, 13]: 0%; % ΔcGI [7, 14]: −8%; % ΔcGI [7, 15]: −4%; % ΔcGI [7, 16]: −1%; % ΔcGI [7, 17]: −7%
O=C1NC(=O)c2ccccc21 [Phthalimide, phthalimide]	no dose-dependent inhibition	−3	4	2	−2	−2	−10	1	0	−2	3	−13	6	4	−2	1	3	2	4	1	dose-dependent inhibition, in words [8]: no dose-dependent effect on any strain tested; dose-dependent inhibition, in words ([8]; listed as phthalimide): did not exhibit a dose-dependent inhibition of any strain; % ΔcGI ([6]; 64 μg/ml): 12%; effect on growth, in words ([6]; M. avium ATCC 25291): no dose-dependent inhibition; % ΔcGI [7, 10]: −3%; % ΔcGI [7, 11]: −1%; % ΔcGI [7, 12]: 7%; % ΔcGI [7, 13]: 0%; % ΔcGI [7, 14]: 0%; % ΔcGI [7, 15]: 1%; % ΔcGI [7, 16]: 2%; % ΔcGI [7, 17]: 4%
CC[C@@]1([C@@H]2O[C@@H]([C@H]3O[C@@](O)(CO)[C@H](C)C[C@@H]3C)C[C@@H]2C)CC[C@H]([C@]2(C)CC[C@]3(C[C@H](O)[C@@H](C)[C@@H]([C@@H](C)[C@@H](OC)[C@H](C)C(=O)O)O3)O2)O1 [Monensin, monensin]	no inhibition	7	3	4	8	−14	−45	−62	−65	−21	−73	−94	−97	−73	−93	−96	−97	−25	−54	−69	effect on growth of MAP, in words [4]: dose-dependent inhibition against all MAP strains; % ΔcGI ([6]; 64 μg/ml): −87%; % ΔcGI [7, 10]: −52%; % ΔcGI [7, 11]: −46%; % ΔcGI [7, 12]: −77%; % ΔcGI [7, 13]: −71%; % ΔcGI [7, 14]: −93%; % ΔcGI [7, 15]: −87%; % ΔcGI [7, 16]: −94%; % ΔcGI [7, 17]: −92%
C=CC[C@@H]1/C=C(\C)C[C@H](C)C[C@H](OC)[C@H]2O[C@@](O)(C(=O)C(=O)N3CCCC[C@H]3C(=O)O[C@H](/C(C)=C/[C@@H]3CC[C@@H](O)[C@H](OC)C3)[C@H](C)[C@@H](O)CC1=O)[C@H](C)C[C@@H]2OC [Tacrolimus, tacrolimus (FK506)]	the most inhibition on M. avium 101 of all six strains studied	−34	−43	−40	−52	8	−3	−5	−26	5	3	−5	−27	6	−19	−18	−43	−23	−3	11	%−ΔcGI (percent decrease in cumulative GI) ([2]; 64 μg/ml, MAP ATCC 19698): 26%; effect on growth of MAP, in words [4]: the least inhibition of the three “immunosuppressants” studied; %−ΔcGI (percent decrease in cumulative GI) ([5]; 64 μg/ml, MAP UCF 4): 43%; % ΔcGI ([6]; 64 μg/ml): 53%; effect on growth, in words ([6]; M. avium ATCC 25291): no inhibition; also recorded: enhanced growth; % ΔcGI [7, 10]: 28%; % ΔcGI [7, 11]: 5%; % ΔcGI [7, 12]: 9%; % ΔcGI [7, 13]: 9%; % ΔcGI [7, 14]: 21%; % ΔcGI [7, 15]: −10%; % ΔcGI [7, 16]: 0%; % ΔcGI [7, 17]: −21%
B1																					protection against infection after immunization [9]: elicits a response capable of protecting against MAP and M. tuberculosis infection
